Reference: patent US10766869B2, “Triazoles for the treatment of demyelinating dieases” (Vertex Pharmaceuticals Incorporated, priority 2015, dated 2020)
Like-named read-outs stand apart in the source and are kept apart here.

Test system: primary rat mixed cortical cells
Assay: In vitro myelination assay (MBP positive myelin strands, fold myelin pixels above background)
Format: cell-based
Settings: Rattus norvegicus; for fold induction at 1 µM: 1.0 μM compound; for fold induction at 10 µM: 10.0 μM compound
In short: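 Fourteen-day treatment of primary P1 rat mixed cortical cultures, re-dosed at days 6 and 10, at 1.0 μM and 10.0 μM. MBP immunofluorescence was imaged at 10× and myelin strands quantified by software, normalised to untreated wells as fold above background.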

[1] = relative to baseline of no added compound, read-out: Fold myelin pixels above background, 1.0 μM
[2] = relative to baseline of no added compound, read-out: Fold myelin pixels above background, 10.0 μM
[3] = relative to baseline of no added compound, read-out: Fold myelin pixels above background
[4] = read-out: Fold myelin pixels above background relative to baseline of no added compound

| Compound | fold induction at 1 µM [1] | fold induction at 10 µM [2] | fold induction at 1 µM [3] | fold induction at 10 µM [3] | further results |
| --- | --- | --- | --- | --- | --- |
| Cc1cc(Nc2ncn(-c3cccc(C(F)(F)F)c3)n2)cc(N2CCN(C3COC3)CC2)c1 [Compound 287, N-[3-methyl-5-[4-(oxetan-3-yl)piperazin-1-yl]phenyl]-1-[3-(trifluoromethyl)phenyl]-1,2,4-triazol-3-amine] | 100 to 1000 | 100 to 1000 | – | – | – |
| Cc1cc(Nc2ncn(-c3ccc(F)cc3)n2)cc(C2COC2)c1 [Compound 409, 1-(4-fluorophenyl)-N-[3-methyl-5-(oxetan-3-yl)phenyl]-1,2,4-triazol-3-amine] | – | – | 1000 to 10000 | 100 to 1000 | – |
| CN(C)C1CCN(c2cc(F)cc(Nc3ncn(-c4cccc(F)c4)n3)c2)C1 (stereo not drawn) [Compound 109, N-[3-[3-(dimethylamino)pyrrolidin-1-yl]-5-fluoro-phenyl]-1-(3-fluorophenyl)-1,2,4-triazol-3-amine] | 10 to 100 | ≤ 1 | – | – | – |
| Cc1cc(Nc2ncn(-c3ccccc3)n2)cc(C2CCNCC2)c1 [Compound 308, N-[3-methyl-5-(4-piperidyl)phenyl]-1-phenyl-1,2,4-triazol-3-amine] | 1000 to 10000 | ≤ 1 | – | – | – |
| Fc1cc(Nc2ncn(-c3ccc(C(F)(F)F)cc3)n2)cc(N2CCCC2)c1 [Compound 441, N-(3-fluoro-5-pyrrolidin-1-yl-phenyl)-1-[4-(trifluoromethyl)phenyl]-1,2,4-triazol-3-amine] | – | – | 1 to 10 | ≤ 1 | – |
| FC(F)c1cc(Nc2ncn(-c3ccccc3)n2)cc(N2CCNCC2)c1 [Compound 62, N-[3-(difluoromethyl)-5-piperazin-1-yl-phenyl]-1-phenyl-1,2,4-triazol-3-amine] | 1000 to 10000 | ≤ 1 | – | – | – |
| Cc1cc(Nc2ncn(-c3cc(F)cc(F)c3)n2)cc(N2CCN(C3CCCC3)C(=O)C2)c1 [Compound 905, 1-cyclopentyl-4-[3-[[1-(3,5-difluorophenyl)-1,2,4-triazol-3-yl]amino]-5-methyl-phenyl]piperazin-2-one] | – | – | – | – | fold induction at 1 µM [4]: 1 to 10; fold induction at 10 µM [4]: 10 to 100 |
| Cc1cc(Nc2ncn(-c3cc(F)cc(F)c3)n2)cc(N2CCN(C(=O)OCC(F)(F)F)CC2)c1 [Compound 350, 2,2,2-trifluoroethyl 4-[3-[[1-(3,5-difluorophenyl)-1,2,4-triazol-3-yl]amino]-5-methyl-phenyl]piperazine-1-carboxylate] | ≤ 1 | ≤ 1 | – | – | – |
| Fc1cc(Nc2ncn(-c3cc(F)cc(F)c3)n2)cc(NC2COC2)c1 [Compound 686, N3-[1-(3,5-difluorophenyl)-1,2,4-triazol-3-yl]-5-fluoro-N1-(oxetan-3-yl)benzene-1,3-diamine] | – | – | 1 to 10 | 1 to 10 | – |
| COCc1cc(Nc2ncn(-c3cccc(C(F)(F)F)c3)n2)nc(N2CCN(C3COC3)CC2)c1 [Compound 625, 4-(methoxymethyl)-6-[4-(oxetan-3-yl)piperazin-1-yl]-N-[1-[3-(trifluoromethyl)phenyl]-1,2,4-triazol-3-yl]pyridin-2-amine] | – | – | 1 to 10 | 10 to 100 | – |
| Fc1cc(Nc2ncn(-c3cccc(F)c3)n2)cc(C2CCN(C3COC3)C2)c1 (stereo not drawn) [Compound 230, N-[3-fluoro-5-[1-(oxetan-3-yl)pyrrolidin-3-yl]phenyl]-1-(3-fluorophenyl)-1,2,4-triazol-3-amine] | 1000 to 10000 | ≤ 1 | – | – | – |
| Cc1cc(Nc2ncn(-c3cc(F)cc(F)c3)n2)cc(N2CC(C)(O)C2)c1 [Compound 551, 1-[3-[[1-(3,5-difluorophenyl)-1,2,4-triazol-3-yl]amino]-5-methyl-phenyl]-3-methyl-azetidin-3-ol] | – | – | 100 to 1000 | 10 to 100 | – |
| COC1CCN(c2cc(C)cc(Nc3ncn(-c4cc(F)cc(F)c4)n3)c2)CC1 [Compound 1006, 1-(3,5-difluorophenyl)-N-[3-(4-methoxy-1-piperidyl)-5-methyl-phenyl]-1,2,4-triazol-3-amine] | – | – | – | – | fold induction at 1 µM [4]: 10 to 100; fold induction at 10 µM [4]: 1 to 10 |
| Cc1cc(Nc2ncn(-c3cc(F)cc(F)c3)n2)cc(C2CCNCC2O)c1 (stereo not drawn) [Compound 438, 4-[3-[[1-(3,5-difluorophenyl)-1,2,4-triazol-3-yl]amino]-5-methyl-phenyl]piperidin-3-ol] | – | – | 10 to 100 | ≤ 1 | – |
| Cc1cc(Nc2ncn(-c3ccccc3)n2)cc(N2CCNC([C@](C)(O)C(C)C)C2)n1 (stereo partly drawn) [Compound 57, (2R)-3-methyl-2-[4-[6-methyl-4-[(1-phenyl-1,2,4-triazol-3-yl)amino]-2-pyridyl]piperazin-2-yl]butan-2-ol] | 100 to 1000 | ≤ 1 | – | – | – |
| Cc1cc(Nc2ncn(-c3ccnnc3)n2)cc(N2CCN(C)CC2)c1 [Compound 399, N-[3-methyl-5-(4-methylpiperazin-1-yl)phenyl]-1-pyridazin-4-yl-1,2,4-triazol-3-amine] | – | – | 10 to 100 | 1 to 10 | – |
| Cc1cc(Nc2ncn(-c3cc(F)cc(F)c3)n2)nc(N2CCCC(F)C2)c1 (stereo not drawn) [Compound 568, N-[1-(3,5-difluorophenyl)-1,2,4-triazol-3-yl]-6-(3-fluoro-1-piperidyl)-4-methyl-pyridin-2-amine] | – | – | 1 to 10 | ≤ 1 | – |
| Cc1cc(Nc2ncn(-c3cc(F)cc(F)c3)n2)cc(C2(C)CN(C3COC3)CCO2)c1 (stereo not drawn) [Compound 708, 1-(3,5-difluorophenyl)-N-[3-methyl-5-[2-methyl-4-(oxetan-3-yl)morpholin-2-yl]phenyl]-1,2,4-triazol-3-amine] | – | – | 1 to 10 | ≤ 1 | – |
| N#Cc1cc(Nc2ncn(-c3ccc(F)c(F)c3)n2)nc(N2CCN(C3COC3)CC2)c1 [Compound 607, 2-[[1-(3,4-difluorophenyl)-1,2,4-triazol-3-yl]amino]-6-[4-(oxetan-3-yl)piperazin-1-yl]pyridine-4-carbonitrile] | – | – | 10 to 100 | 10 to 100 | – |
| Cc1cc(Nc2ncn(-c3ccc(F)c(F)c3)n2)cc(N2CCN(CC(F)(F)F)CC2)c1 [Compound 231, 1-(3,4-difluorophenyl)-N-[3-methyl-5-[4-(2,2,2-trifluoroethyl)piperazin-1-yl]phenyl]-1,2,4-triazol-3-amine] | 100 to 1000 | 100 to 1000 | – | – | – |
| Cc1cc(Nc2ncn(-c3cc(C)cc(F)c3)n2)cc(N2CCN(C3COC3)CC2)c1 [Compound 323, 1-(3-fluoro-5-methyl-phenyl)-N-[3-methyl-5-[4-(oxetan-3-yl)piperazin-1-yl]phenyl]-1,2,4-triazol-3-amine] | 1000 to 10000 | 100 to 1000 | – | – | – |
| Cc1cc(Nc2ncn(-c3cc(F)cc(F)c3)n2)cc(N2CCC(OC(C)C)CC2)c1 [Compound 1019, 1-(3,5-difluorophenyl)-N-[3-(4-isopropoxy-1-piperidyl)-5-methyl-phenyl]-1,2,4-triazol-3-amine] | – | – | – | – | fold induction at 1 µM [4]: 1 to 10; fold induction at 10 µM [4]: 10 to 100 |
| Cc1cc(Nc2ncn(-c3cccc(Cl)c3)n2)cc(N2CCN(C3COC3)CC2)c1 [Compound 397, 1-(3-chlorophenyl)-N-[3-methyl-5-[4-(oxetan-3-yl)piperazin-1-yl]phenyl]-1,2,4-triazol-3-amine] | – | – | 1000 to 10000 | 100 to 1000 | – |
| Cc1cc(Nc2ncn(-c3cc(F)cc(F)c3)n2)cc(N2CCCC3(COC3)C2)c1 [Compound 541, 1-(3,5-difluorophenyl)-N-[3-methyl-5-(2-oxa-8-azaspiro[3.5]nonan-8-yl)phenyl]-1,2,4-triazol-3-amine] | – | – | ≤ 1 | 1 to 10 | – |
| COCCN1CC(Nc2cc(C)cc(Nc3ncn(-c4cc(F)cc(F)c4)n3)c2)CC1=O (stereo not drawn) [Compound 934, 4-[3-[[1-(3,5-difluorophenyl)-1,2,4-triazol-3-yl]amino]-5-methyl-anilino]-1-(2-methoxyethyl)pyrrolidin-2-one] | – | – | – | – | fold induction at 1 µM [4]: 10 to 100; fold induction at 10 µM [4]: ≤ 1 |
| Cc1cc(Nc2ncn(-c3cc(F)cc(F)c3)n2)cc(N2CCN(C(=O)C3CCOCC3)CC2)c1 [Compound 991, [4-[3-[[1-(3,5-difluorophenyl)-1,2,4-triazol-3-yl]amino]-5-methyl-phenyl]piperazin-1-yl]-tetrahydropyran-4-yl-methanone] | – | – | – | – | fold induction at 1 µM [4]: 10 to 100; fold induction at 10 µM [4]: 1 to 10 |
| CCc1cc(Nc2ncn(-c3ccc(C)cc3)n2)cc(N2CCN(C3COC3)CC2)c1 [Compound 31, N-[3-ethyl-5-[4-(oxetan-3-yl)piperazin-1-yl]phenyl]-1-(p-tolyl)-1,2,4-triazol-3-amine] | 100 to 1000 | 100 to 1000 | – | – | – |
| Cc1cc(Nc2ncn(-c3ccccc3)n2)cc(N2CCN(CC(C)(C)O)CC2)c1 [Compound 461, 2-methyl-1-[4-[3-methyl-5-[(1-phenyl-1,2,4-triazol-3-yl)amino]phenyl]piperazin-1-yl]propan-2-ol] | – | – | 1000 to 10000 | ≤ 1 | – |
| Cc1cc(Nc2ncn(-c3cccc(C(F)F)c3)n2)nc(NC2CCOC2)c1 (stereo not drawn) [Compound 689, N6-[1-[3-(difluoromethyl)phenyl]-1,2,4-triazol-3-yl]-4-methyl-N2-tetrahydrofuran-3-yl-pyridine-2,6-diamine] | – | – | 1 to 10 | 1 to 10 | – |
| Cc1cc(NCC(=O)N2CCCC2)cc(Nc2ncn(-c3cc(F)cc(F)c3)n2)c1 [Compound 993, 2-[3-[[1-(3,5-difluorophenyl)-1,2,4-triazol-3-yl]amino]-5-methyl-anilino]-1-pyrrolidin-1-yl-ethanone] | – | – | – | – | fold induction at 1 µM [4]: 1 to 10; fold induction at 10 µM [4]: 10 to 100 |
